The source of these data is paper PMC5088049 (Pharmacogenetics and genomics, 2016).

Series [1] deals with T1, AKR1C2 Phe46Tyr (Homo sapiens, UniProt P52895, F46Y).
T1 sequence (P52895 1-323 F46Y): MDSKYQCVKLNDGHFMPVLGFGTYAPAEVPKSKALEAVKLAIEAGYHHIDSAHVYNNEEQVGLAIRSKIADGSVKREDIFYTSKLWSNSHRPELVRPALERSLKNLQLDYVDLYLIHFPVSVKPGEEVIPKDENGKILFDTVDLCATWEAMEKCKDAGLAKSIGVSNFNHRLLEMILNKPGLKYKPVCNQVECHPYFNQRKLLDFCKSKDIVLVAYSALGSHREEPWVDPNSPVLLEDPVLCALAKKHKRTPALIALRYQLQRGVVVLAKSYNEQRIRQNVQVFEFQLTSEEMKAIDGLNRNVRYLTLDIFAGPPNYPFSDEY
The settings on record: relative to wildtype AKR1C2; cited from earlier work.

Series [2] has as its target T2, aromatase (Homo sapiens, UniProt P11511).
T2 sequence (P11511 1-503): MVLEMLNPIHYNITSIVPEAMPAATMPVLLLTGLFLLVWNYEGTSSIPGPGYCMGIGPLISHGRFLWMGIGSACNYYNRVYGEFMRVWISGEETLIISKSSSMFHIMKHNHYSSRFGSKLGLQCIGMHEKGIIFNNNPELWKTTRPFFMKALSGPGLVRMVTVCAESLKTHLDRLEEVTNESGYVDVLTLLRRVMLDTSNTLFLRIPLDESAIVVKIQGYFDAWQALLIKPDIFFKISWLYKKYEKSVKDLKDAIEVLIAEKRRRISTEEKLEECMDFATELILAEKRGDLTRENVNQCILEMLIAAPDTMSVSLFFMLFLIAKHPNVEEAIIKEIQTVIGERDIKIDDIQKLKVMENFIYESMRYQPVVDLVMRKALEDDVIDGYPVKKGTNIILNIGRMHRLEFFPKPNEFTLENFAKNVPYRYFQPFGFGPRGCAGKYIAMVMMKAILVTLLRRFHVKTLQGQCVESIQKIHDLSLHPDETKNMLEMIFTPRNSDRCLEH
The series is described as follows: Inhibition of aromatase-mediated estrogen formation. Type of series: biochemical. The settings on record: unpublished observations.

The target of series [3] is T2, aromatase. The settings on record: aromatase-mediated estrogen formation; cited from earlier work.
The conditions of series [4]: cited from earlier work.
For series [5], the target named is T1, AKR1C2 Phe46Tyr. The settings on record: cited from earlier work.
Substrate in the series “not read”: C=C1C[C@@H]2[C@H](CC[C@]3(C)C(=O)CC[C@@H]23)[C@@]2(C)C=CC(=O)C=C12
Description: not read. The settings on record: other: AKR1C2 Phe46Tyr (rs2854482); 17β-DHE formation; 37.0 °C.

Turning to `OC1Cc2cccc3cccc1c23` (stereo not shown) [1-acenaphthenol], the “decrease in overall AKR1C2 activity by Phe46Tyr substitution” value on AKR1C2 Phe46Tyr [1] was “approximately 30%”. Consider `C=C1C[C@H]2[C@@H]3CC[C@@H](O)[C@@]3(C)CC[C@@H]2[C@@]2(C)C=CC(=O)C=C12` [17α-DHE, 17α-dihydroexemestane], for which, on aromatase [2], the aromatase-inhibiting properties entry is “no appreciable aromatase-inhibiting properties”. For `C=C1C[C@H]2[C@@H]3CC[C@H](O)[C@@]3(C)CC[C@@H]2[C@@]2(C)C=CC(=O)C=C12` [17β-DHE, 17β-dihydroexemestane], on aromatase [3], the aromatase inhibition potency entry was “potency similar to its parent compound EXE”. Besides, in series [4] (healthy individuals taking EXE), the “17β-DHE concentration relative to parent drug in plasma” value is on record as 35–40%. Also, the “variation of amount of 17β-DHE relative to EXE in human plasma” value in series [4] (pool of three participants) is “five-fold”. For the molecule `C[C@]12CCC(=O)C[C@@H]1CC[C@@H]1[C@@H]2CC[C@]2(C)[C@@H](O)CC[C@@H]12` [5α-DHT], on AKR1C2 Phe46Tyr [5], the “decrease in VMAX for reduction relative to wildtype enzyme” value is reported as 40%.

B1: AKR1C2 Phe46Tyr (Homo sapiens; F46Y) (protein)
chain: T1 sequence (P52895 1-323 F46Y)
In general, Km refers to the concentration of substrate that gives half-maximal velocity. Turning to B1, in the series “not read”, the Km is listed as 13.5 ± 2.8 µM.
